This is an account of results in ChEMBL document CHEMBL1130668, “Synthesis and evaluation of paclitaxel C7 derivatives: solution phase synthesis of combinatorial libraries” (1998).

Activity calls are given as the source filed them. The calls are words filed in the database; no cut-off is given here.

The subject of test [1] is MCF7. The experiment in a line: Cytotoxicity activity was measured against resistant human breast cancer cell line MCF-7 with respect to ED50 of paclitaxel (2200-3700 nM); IA inactive. The format is functional, cell-based.
The nature of test [2]: Ratio in tubulin to that of paclitaxel (0.3 uM) in microtubule assembly assay; IA inactive. The format is functional.
Test [3] relates to MCF7. The experiment in a line: Cytotoxicity activity was measured against human breast cancer cell line MCF-7 with respect to ED50 of paclitaxel (2 nM); IA inactive. The format is functional, cell-based.
In test [4] the test system is MCF7. Briefly: Effect on microtubule assembly in MCF-7 cells, compared to paclitaxel (0.3 uM), given as ratio of respective ED50. The format is functional, Homo sapiens.
For test [5], the system named is MCF7. Briefly: Cytotoxicity activity was measured against human breast cancer cell line MCF-7; Did not inhibit proliferation at maximum concentration tested. The following applies: read-out: ED50 (the source's name). In kind it is functional.
Test [6] has as its system MCF7. Briefly: Cytotoxicity activity was measured against resistant human breast cancer cell line MCF-7; Did not inhibit proliferation at maximum concentration tested. The format is functional. The following applies: read-out: ED50 (the source's name).

`CCCCCCCCCCCCC(=O)O[C@H]1C[C@H]2OC[C@@]2(OC(C)=O)[C@H]2[C@H](OC(=O)c3ccccc3)[C@]3(O)C[C@H](OC(=O)[C@H](O)[C@@H](NC(=O)c4ccccc4)c4ccccc4)C(C)=C([C@@H](OC(C)=O)C(=O)[C@]12C)C3(C)C`: the ED50 entry with MCF7 [1] and in the test with MCF7 [3] was “inactive” throughout. For the same compound, the Ratio entry in test [2] is “inactive”.

`CC(=O)O[C@H]1C(=O)[C@]2(C)[C@@H](OC(=O)/C=C/Cl)C[C@H]3OC[C@@]3(OC(C)=O)[C@H]2[C@H](OC(=O)c2ccccc2)[C@]2(O)C[C@H](OC(=O)[C@H](O)[C@@H](NC(=O)c3ccccc3)c3ccccc3)C(C)=C1C2(C)C`: in the test on MCF7 [4], the Ratio is 5.3. The EC50 in the test with MCF7 [5] was more than 80 nM; in the test on MCF7 [6], more than 5000 nM.

In the case of `CC(=O)O[C@H]1C(=O)[C@]2(C)[C@@H](OC(=O)c3ccc4ccccc4c3)C[C@H]3OC[C@@]3(OC(C)=O)[C@H]2[C@H](OC(=O)c2ccccc2)[C@]2(O)C[C@H](OC(=O)[C@H](O)[C@@H](NC(=O)c3ccccc3)c3ccccc3)C(C)=C1C2(C)C`, in the test with MCF7 [4], the Ratio was determined as 60. Also, the EC50 was more than 80 nM in the test on MCF7 [5] and more than 5000 nM with MCF7 [6].

As to `CC(=O)O[C@H]1C(=O)[C@]2(C)[C@@H](OC(=O)CCCNC(=O)OC(C)(C)C)C[C@H]3OC[C@@]3(OC(C)=O)[C@H]2[C@H](OC(=O)c2ccccc2)[C@]2(O)C[C@H](OC(=O)[C@H](O)[C@@H](NC(=O)c3ccccc3)c3ccccc3)C(C)=C1C2(C)C`, the Ratio in the test with MCF7 [4] came to 0.7. The EC50 in the test on MCF7 [5] was more than 80 nM; in the test on MCF7 [6], more than 5000 nM.

On to `CC(=O)O[C@H]1C(=O)[C@]2(C)[C@@H](OC(=O)c3cnc(Cl)c(Cl)c3)C[C@H]3OC[C@@]3(OC(C)=O)[C@H]2[C@H](OC(=O)c2ccccc2)[C@]2(O)C[C@H](OC(=O)[C@H](O)[C@@H](NC(=O)c3ccccc3)c3ccccc3)C(C)=C1C2(C)C`, for which the ED50 result with MCF7 [1] and in the test on MCF7 [3] was “inactive” each time. In test [2], the Ratio entry was “inactive”.

On to `CC(=O)O[C@H]1C(=O)[C@]2(C)[C@@H](OC(=O)CCc3ccccc3)C[C@H]3OC[C@@]3(OC(C)=O)[C@H]2[C@H](OC(=O)c2ccccc2)[C@]2(O)C[C@H](OC(=O)[C@H](O)[C@@H](NC(=O)c3ccccc3)c3ccccc3)C(C)=C1C2(C)C`, for which the ED50 entry in the test on MCF7 [1] and in the test on MCF7 [3] was “inactive” each time. For the same compound, the Ratio result in test [2] was “inactive”.

`C/C=C/C(=O)O[C@H]1C[C@H]2OC[C@@]2(OC(C)=O)[C@H]2[C@H](OC(=O)c3ccccc3)[C@]3(O)C[C@H](OC(=O)[C@H](O)[C@@H](NC(=O)c4ccccc4)c4ccccc4)C(C)=C([C@@H](OC(C)=O)C(=O)[C@]12C)C3(C)C` [PACLITAXEL C7 CROTONIC ACID ESTER]: the Ratio in the test with MCF7 [4] was found to be 6.7. In addition, the results for the EC50 in the test with MCF7 [5] and in the test with MCF7 [6] were more than 80 nM and more than 5000 nM, respectively.

In the case of `CC(=O)O[C@H]1C(=O)[C@]2(C)[C@@H](OC(=O)c3ccc(Cl)c(Cl)c3)C[C@H]3OC[C@@]3(OC(C)=O)[C@H]2[C@H](OC(=O)c2ccccc2)[C@]2(O)C[C@H](OC(=O)[C@H](O)[C@@H](NC(=O)c3ccccc3)c3ccccc3)C(C)=C1C2(C)C`, the Ratio with MCF7 [4] came out at 24. Further, the EC50 with MCF7 [5] is more than 80 nM; with MCF7 [6], more than 5000 nM.

For the compound `CC(=O)O[C@H]1C(=O)[C@]2(C)[C@@H](OC(=O)c3cccnc3C)C[C@H]3OC[C@@]3(OC(C)=O)[C@H]2[C@H](OC(=O)c2ccccc2)[C@]2(O)C[C@H](OC(=O)[C@H](O)[C@@H](NC(=O)c3ccccc3)c3ccccc3)C(C)=C1C2(C)C`, the Ratio with MCF7 [4] worked out at 32. For the same compound, the EC50 in the test with MCF7 [5] is more than 80 nM; in the test with MCF7 [6], more than 5000 nM.
